Test results as given in patent US20250163024A1, “CHEMICAL TARGETING SWI/SNF RELATED, MATRIX ASSOCIATED, ACTIN DEPENDENT REGULATOR OF CHROMATIN, SUBFAMILY A, MEMBER 4 (SMARCA4) AND USE IN DIFFUSE INTRINSIC PONTINE GLIOMA (DIPG)” (DANA-FARBER CANCER INSTITUTE, INC., priority 2022, published 2025).
Read-outs that look alike come from different tables or passages of the source.

What was measured:
Type in all cases: cell-based
[1] = tested on: MOLM13 (acute monocytic leukemia) cells; test: Cell proliferation assay (ATPlite cell viability) in MOLM13 cells; details: for IC50: Homo sapiens
Description: 2000 cells were seeded in 50 μL of RPMI medium in each well of a white, solid bottomed 384-well plate. Plates were spun down briefly, and seeded cells were pinned with […] of the bifunctional compound at serial three-fold diluted concentrations using the JANUS® Liquid Handling Workstation. […] After compound treatment, 15 μL of 1:2 solution of ATPlite™ 1Step diluted in PBS was added to each well of the 384-well plates. Plates were put on a plate shaker for 1 minute and incubated at room temperature for 9 minutes, and the resulting luminescence signal was read using an EnVision® plate reader. Cell viability was calculated by normalizing luminescence signals of SMARC compound treated cells to that of vehicle treated cells.

[2] = tested on: MV411 (human myelomonocytic leukemia) cells; test: Cell proliferation assay (ATPlite cell viability) in MV411 cells; details: for IC50: Homo sapiens, MV4-11, 48 hours
Description: 2000 cells were seeded in 50 μL of RPMI medium in each well of a white, solid bottomed 384-well plate. Plates were spun down briefly, and seeded cells were pinned with […] of the bifunctional compound at serial three-fold diluted concentrations using the JANUS® Liquid Handling Workstation. Plates were incubated at 37° C. in 5% CO2 for the indicated treatment time (48 hours). After compound treatment, 15 μL of 1:2 solution of ATPlite™ 1Step diluted in PBS was added to each well of the 384-well plates. Plates were put on a plate shaker for 1 minute and incubated at room temperature for 9 minutes, and the resulting luminescence signal was read using an EnVision® plate reader. Cell viability was calculated by normalizing luminescence signals of SMARC compound treated cells to that of vehicle treated cells.

SMARCA4 (BRG) = target: T1, SMARCA4 (BRG) (Homo sapiens, UniProt P51532); test: Cellular degradation of SMARCA4 in NOMO-1 cells (western blot); details: NOMO1 cells, low micromolar treatment, 24 hours, western blot FIG. 1A-1B
T1 construct: endogenous in cells; host or cells: NOMO-1 cells
T1 sequence (P51532 whole entry): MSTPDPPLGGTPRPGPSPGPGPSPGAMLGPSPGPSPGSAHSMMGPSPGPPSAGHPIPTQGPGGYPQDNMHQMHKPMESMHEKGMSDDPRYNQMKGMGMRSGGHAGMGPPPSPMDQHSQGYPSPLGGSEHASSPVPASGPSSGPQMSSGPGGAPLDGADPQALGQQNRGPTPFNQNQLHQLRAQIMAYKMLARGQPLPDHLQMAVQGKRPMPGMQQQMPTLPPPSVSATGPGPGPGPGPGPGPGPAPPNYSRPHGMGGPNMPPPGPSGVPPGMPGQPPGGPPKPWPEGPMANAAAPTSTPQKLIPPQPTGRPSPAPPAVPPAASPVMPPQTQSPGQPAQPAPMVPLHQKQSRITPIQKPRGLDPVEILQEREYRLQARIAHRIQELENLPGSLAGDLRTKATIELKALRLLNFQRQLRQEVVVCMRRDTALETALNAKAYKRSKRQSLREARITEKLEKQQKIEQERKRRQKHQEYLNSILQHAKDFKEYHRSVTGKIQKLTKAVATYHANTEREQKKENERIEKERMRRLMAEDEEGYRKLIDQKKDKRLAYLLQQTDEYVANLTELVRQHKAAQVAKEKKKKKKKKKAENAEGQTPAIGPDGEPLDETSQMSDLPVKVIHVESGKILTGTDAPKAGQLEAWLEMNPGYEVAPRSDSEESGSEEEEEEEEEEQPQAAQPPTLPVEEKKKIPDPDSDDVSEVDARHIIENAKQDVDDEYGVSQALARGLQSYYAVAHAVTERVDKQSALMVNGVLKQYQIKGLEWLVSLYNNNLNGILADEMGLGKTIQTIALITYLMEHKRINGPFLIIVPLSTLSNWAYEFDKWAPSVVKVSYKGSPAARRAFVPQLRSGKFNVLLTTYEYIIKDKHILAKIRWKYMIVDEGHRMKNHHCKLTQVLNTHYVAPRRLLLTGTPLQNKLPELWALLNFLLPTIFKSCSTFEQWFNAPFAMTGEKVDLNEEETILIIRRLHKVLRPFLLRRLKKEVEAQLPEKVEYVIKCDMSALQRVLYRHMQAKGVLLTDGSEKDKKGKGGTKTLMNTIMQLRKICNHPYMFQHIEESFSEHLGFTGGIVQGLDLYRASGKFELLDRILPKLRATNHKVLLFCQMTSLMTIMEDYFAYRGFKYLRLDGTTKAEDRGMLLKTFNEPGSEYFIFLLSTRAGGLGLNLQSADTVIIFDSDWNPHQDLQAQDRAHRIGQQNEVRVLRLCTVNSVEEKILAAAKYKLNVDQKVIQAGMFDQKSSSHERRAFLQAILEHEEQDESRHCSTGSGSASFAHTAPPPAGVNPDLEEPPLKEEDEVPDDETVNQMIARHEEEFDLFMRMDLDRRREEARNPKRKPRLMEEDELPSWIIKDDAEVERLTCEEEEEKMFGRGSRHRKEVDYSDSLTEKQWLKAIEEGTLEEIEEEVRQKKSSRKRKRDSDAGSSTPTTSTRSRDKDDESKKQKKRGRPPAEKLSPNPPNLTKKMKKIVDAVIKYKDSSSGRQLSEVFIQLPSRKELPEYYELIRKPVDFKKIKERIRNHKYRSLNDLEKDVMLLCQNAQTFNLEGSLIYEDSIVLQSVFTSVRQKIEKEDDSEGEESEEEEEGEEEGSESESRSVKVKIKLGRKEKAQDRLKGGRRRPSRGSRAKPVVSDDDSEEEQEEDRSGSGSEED
Description: For each tested condition, 1 million cells were seeded into a well of a 6-well plate. After overnight incubation at 37° C. in 5% CO2, cells were treated with either DMSO or varying doses of the indicated bifunctional compound and put back into the incubator for the indicated treatment time. Treated cells were collected by transferring cell suspensions from 6-well plate wells into microcentrifuge tubes and spinning down samples at 3000 rpm for 3 minutes. Supernatant was discarded and all samples were washed with phosphate-buffered saline (PBS) to remove any remaining compound from the cells. Cells were lysed using radioimmunoprecipitation assay (RIPA) buffer and sonicated on ice for 3 seconds at 25% amplification and allowed to rest for 15-30 minutes. Lysates were then spun down at 15000 rpm for 10 minutes and supernatant was collected. Protein concentration was measured using the Pierce™ bicinchoninic acid (BCA) Protein Assay Kit from ThermoFisher Scientific according to the manufacturer's instructions. Equivalent amounts of protein were resolved by western blotting using 4-12% Bis-Tris NuPAGE™ gels (Thermo-Fisher Scientific) prior to transfer and overnight immunoblotting using primary antibodies to the proteins indicated. […]

[3] = MOLM-13, 48 hours, read-out: IC50 (μM) MOLM13-48h
[4] = MOLM-13, 72 h (starred values), read-out: IC50 (μM) MOLM13, *72 h

Structure (SMILES)	IC50 [1, 3] [µM]	IC50 [2] [µM]	also measured
O=C1CCC(N2C(=O)c3cccc(NCCCCNC(=O)c4cccc(C#Cc5cc(NC(=O)Nc6ccnc(Cl)c6)ccn5)c4)c3C2=O)C(=O)N1 (racemic) [Compound 19, 3-((4-(3-(2-chloropyridin-4-yl)ureido)pyridin-2-yl)ethynyl)-N-(4-((2-(2,6-dioxopiperidin-3-yl)-1,3-dioxoisoindolin-4-yl)amino)butyl)benzamide]	0.0571	0.109	IC50 (μM) MOLM13-48h ([1]; 48 hours): submicromolar; IC50 (μM) MV411-48h [2]: submicromolar
O=C1CCC(N2C(=O)c3cccc(NCCCCNC(=O)c4cccc(CCc5cc(NC(=O)Nc6ccnc(Cl)c6)ccn5)c4)c3C2=O)C(=O)N1 (stereo not drawn) [Compound 5, 3-(2-(4-(3-(2-chloropyridin-4-yl)ureido)pyridin-2-yl)ethyl)-N-(4-((2-(2,6-dioxopiperidin-3-yl)-1,3-dioxoisoindolin-4-yl)amino)butyl)benzamide]	–	–	BRG (SMARCA4) degradation (SMARCA4 (BRG)): significantly degraded
O=C1CCC(N2C(=O)c3cccc(NCCCCNC(=O)c4ccc(C#Cc5cc(NC(=O)Nc6ccnc(Cl)c6)ccn5)cc4)c3C2=O)C(=O)N1 (stereo not drawn) [Compound 6, 4-((4-(3-(2-chloropyridin-4-yl)ureido)pyridin-2-yl)ethynyl)-N-(4-((2-(2,6-dioxopiperidin-3-yl)-1,3-dioxoisoindolin-4-yl)amino)butyl)benzamide]	–	–	BRG (SMARCA4) degradation (SMARCA4 (BRG)): significantly degraded
O=C1CCC(N2C(=O)c3cccc(NCCCCCCCCNC(=O)c4cccc(C#Cc5cc(NC(=O)Nc6ccnc(Cl)c6)ccn5)c4)c3C2=O)C(=O)N1 (stereo not drawn) [Compound 17]	–	0.491	IC50 [1, 4]: 0.566 µM
O=C1CCC(N2C(=O)c3cccc(NCCOCCOCCNC(=O)c4cccc(C#Cc5cc(NC(=O)Nc6ccnc(Cl)c6)ccn5)c4)c3C2=O)C(=O)N1 (stereo not drawn) [Compound 18]	–	0.109	IC50 [1, 4]: 1.28 µM
O=C1CCC(N2C(=O)c3ccc(NCCCCNC(=O)c4cccc(C#Cc5cc(NC(=O)Nc6ccnc(Cl)c6)ccn5)c4)cc3C2=O)C(=O)N1 (stereo not drawn) [Compound 21]	0.0793	0.0102	–
O=C1CCC(N2C(=O)c3ccc(NCCOCCNC(=O)c4cccc(C#Cc5cc(NC(=O)Nc6ccnc(Cl)c6)ccn5)c4)cc3C2=O)C(=O)N1 (stereo not drawn) [Compound 22]	0.253	0.037	–
O=C1CCC(N2C(=O)c3cccc(NCCNC(=O)c4cccc(C#Cc5cc(NC(=O)Nc6ccnc(Cl)c6)ccn5)c4)c3C2=O)C(=O)N1 (stereo not drawn) [Compound 23]	6.18	21.7	–
O=C1CCC(N2C(=O)c3cccc(NCCCCCCNC(=O)c4cccc(C#Cc5cc(NC(=O)Nc6ccnc(Cl)c6)ccn5)c4)c3C2=O)C(=O)N1 (stereo not drawn) [Compound 24]	0.344	0.0389	–
